The target in one test is GLP-1 receptor (Homo sapiens, UniProt P43220). Briefly: HitHunter cAMP assay, GLP-1 receptor. It counts as cell-based. The settings on record: read-out: Emax GLP-1R. In general terms: Cyclic AMP is a second messenger, typically raised through Gs and lowered through Gi signalling.
In a further test the target is T1, GIP receptor (Homo sapiens, UniProt P48546).
T1 sequence (P48546 22-466): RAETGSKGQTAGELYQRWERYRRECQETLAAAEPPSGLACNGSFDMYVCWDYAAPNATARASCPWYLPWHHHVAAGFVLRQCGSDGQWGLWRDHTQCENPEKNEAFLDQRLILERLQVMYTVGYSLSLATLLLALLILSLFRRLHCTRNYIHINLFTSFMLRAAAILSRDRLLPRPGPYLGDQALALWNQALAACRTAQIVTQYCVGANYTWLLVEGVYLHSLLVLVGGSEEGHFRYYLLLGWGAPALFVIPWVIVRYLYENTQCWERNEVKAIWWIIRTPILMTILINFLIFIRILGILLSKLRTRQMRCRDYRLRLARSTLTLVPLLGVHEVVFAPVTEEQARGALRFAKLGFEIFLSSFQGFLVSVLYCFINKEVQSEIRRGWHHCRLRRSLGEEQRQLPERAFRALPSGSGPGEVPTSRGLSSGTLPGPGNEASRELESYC
The test is described as follows: HitHunter cAMP assay, GIP receptor. It counts as cell-based. The settings on record: read-out: Emax GIP-1R.

[1] abbreviates: CHO cells, cAMP, normalized to maximum signal from GLP-1 (high) and DMSO (low).
Setting [2] is: CHO cells, cAMP, normalized to maximum signal from GIP (high) and DMSO (low).

Where two headings read alike, the source gives them in different places. *1 amine or outer side, *2 acyl side, *3 side chain or, on linkers, in order; H or OH if unused. Where a SMILES comes first, the peptide text is derived from it. Side-chain parts run from the residue outwards. [ ]: non-standard residue; d: D form. The star is where a group is joined. Isobutyryl(2-(3-CN-5-F-Ph)) = CC(C)(C(=O)*)c1cc(F)cc(C#N)c1; C20 diacid = O=C(O)CCCCCCCCCCCCCCCCCCC(=O)*; γGlu = O=C(O)[C@H](CCC(=O)[*:2])N[*:1]; X60 = O=C(C1(c2cccnc2)CCCC1)*; X83 = Cc1ccn(C(C)(C)C(=O)*)n1; X24 = O=C(C1(c2cccnc2)CCC1)*; X66 = NC(=O)C1(C(=O)*)CCC1; AEEA = NCCOCCOCC(=O)O; Aib = CC(C)(N)C(=O)O; CO = O=C([*:1])[*:2]; X67 = Cc1cccc(N*)c1; GABA = NCCCC(=O)O; βAla = NCCC(=O)O

GLP-1 receptor, sequence (P43220 24-463): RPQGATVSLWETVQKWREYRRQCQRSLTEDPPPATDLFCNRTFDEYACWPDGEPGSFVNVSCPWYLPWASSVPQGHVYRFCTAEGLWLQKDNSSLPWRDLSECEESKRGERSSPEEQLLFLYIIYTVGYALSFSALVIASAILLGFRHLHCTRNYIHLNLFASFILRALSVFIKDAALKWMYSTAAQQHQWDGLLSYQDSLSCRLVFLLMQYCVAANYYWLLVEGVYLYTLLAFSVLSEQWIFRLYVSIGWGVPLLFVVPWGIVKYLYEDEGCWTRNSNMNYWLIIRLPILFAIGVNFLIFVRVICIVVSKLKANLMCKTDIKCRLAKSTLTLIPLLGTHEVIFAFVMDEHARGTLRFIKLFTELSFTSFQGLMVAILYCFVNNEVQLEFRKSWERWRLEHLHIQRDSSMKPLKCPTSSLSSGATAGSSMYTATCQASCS

`CC[C@H](C)[C@H](NC(=O)[C@H](CC(C)C)NC(=O)[C@H](Cc1c[nH]c2ccccc12)NC(=O)[C@H](CCC(N)=O)NC(=O)[C@@H](NC(=O)[C@H](Cc1ccccc1)NC(=O)[C@H](C)NC(=O)[C@H](CCCCNC(=O)COCCOCCNC(=O)COCCOCCNC(=O)CC[C@H](NC(=O)CCCCCCCCCCCCCCCCCCC(=O)O)C(=O)O)NC(=O)[C@H](CCC(N)=O)NC(=O)[C@H](C)NC(=O)[C@@H](NC(=O)[C@H](CCCCN)NC(=O)[C@H](CC(=O)O)NC(=O)[C@H](CC(C)C)NC(=O)C(C)(C)NC(=O)[C@@H](NC(=O)[C@H](CO)NC(=O)[C@H](Cc1ccc(O)cc1)NC(=O)[C@H](CC(=O)O)NC(=O)[C@H](CO)NC(=O)[C@@H](NC(=O)[C@H](Cc1ccccc1)NC(=O)[C@@H](NC(=O)CNC(=O)[C@H](CCC(=O)O)NC(=O)CCNC(=O)C(C)(C)n1ccc(C)n1)[C@@H](C)O)[C@@H](C)O)[C@@H](C)CC)[C@@H](C)CC)C(C)C)C(=O)N[C@@H](C)C(=O)NCC(=O)NCC(=O)N1CCC[C@H]1C(=O)N[C@@H](CO)C(=O)N[C@@H](CO)C(=O)NCC(=O)N[C@@H](C)C(=O)N1CCC[C@H]1C(=O)N1CCC[C@H]1C(=O)N1CCC[C@H]1C(=O)N[C@@H](CO)C(N)=O` [Compound 253] ({X83-βAla}-EGTFTSDYSI[Aib]LDKIAQK([AEEA-AEEA-γGlu-C20 diacid])AFVQWLIAGGPSSGAPPPS-NH2; C-terminus assumed): the Emax (as a rule, the size of the effect at its maximum, as opposed to the concentration needed) at GLP-1 receptor (setting [1]) is 94%; on GIP receptor (setting [2]), 105%.

For `CC[C@H](C)[C@H](NC(=O)[C@H](CC(C)C)NC(=O)[C@H](Cc1c[nH]c2ccccc12)NC(=O)[C@H](CCC(N)=O)NC(=O)[C@@H](NC(=O)[C@H](Cc1ccccc1)NC(=O)[C@H](C)NC(=O)[C@H](CCCCNC(=O)COCCOCCNC(=O)COCCOCCNC(=O)CC[C@H](NC(=O)CCCCCCCCCCCCCCCCCCC(=O)O)C(=O)O)NC(=O)[C@H](CCC(N)=O)NC(=O)[C@H](C)NC(=O)[C@@H](NC(=O)[C@H](CCCCN)NC(=O)[C@H](CC(=O)O)NC(=O)[C@H](CC(C)C)NC(=O)C(C)(C)NC(=O)[C@@H](NC(=O)[C@H](CO)NC(=O)[C@H](Cc1ccc(O)cc1)NC(=O)[C@H](CC(=O)O)NC(=O)[C@H](CO)NC(=O)[C@@H](NC(=O)[C@H](Cc1ccccc1)NC(=O)[C@@H](NC(=O)CNC(=O)[C@H](CCC(=O)O)NC(=O)CCNC(=O)C(C)(C)c1cc(F)cc(C#N)c1)[C@@H](C)O)[C@@H](C)O)[C@@H](C)CC)[C@@H](C)CC)C(C)C)C(=O)N[C@@H](C)C(=O)NCC(=O)NCC(=O)N1CCC[C@H]1C(=O)N[C@@H](CO)C(=O)N[C@@H](CO)C(=O)NCC(=O)N[C@@H](C)C(=O)N1CCC[C@H]1C(=O)N1CCC[C@H]1C(=O)N1CCC[C@H]1C(=O)N[C@@H](CO)C(N)=O` [Compound 254] ({Isobutyryl(2-(3-CN-5-F-Ph))-βAla}-EGTFTSDYSI[Aib]LDKIAQK([AEEA-AEEA-γGlu-C20 diacid])AFVQWLIAGGPSSGAPPPS-NH2; C-terminus assumed), the Emax stood at 93% at GLP-1 receptor (setting [1]) and 102% at GIP receptor (setting [2]).

Take `CC[C@H](C)[C@H](NC(=O)[C@H](CC(C)C)NC(=O)[C@H](Cc1c[nH]c2ccccc12)NC(=O)[C@H](CCC(N)=O)NC(=O)[C@@H](NC(=O)[C@H](Cc1ccccc1)NC(=O)[C@H](C)NC(=O)[C@H](CCCCNC(=O)COCCOCCNC(=O)COCCOCCNC(=O)CC[C@H](NC(=O)CCCCCCCCCCCCCCCCCCC(=O)O)C(=O)O)NC(=O)[C@H](CCC(N)=O)NC(=O)[C@H](C)NC(=O)[C@@H](NC(=O)[C@H](CCCCN)NC(=O)[C@H](CC(=O)O)NC(=O)[C@H](CC(C)C)NC(=O)C(C)(C)NC(=O)[C@@H](NC(=O)[C@H](CO)NC(=O)[C@H](Cc1ccc(O)cc1)NC(=O)[C@H](CC(=O)O)NC(=O)[C@H](CO)NC(=O)[C@@H](NC(=O)[C@H](Cc1ccccc1)NC(=O)[C@@H](NC(=O)CNC(=O)[C@H](CCC(=O)O)NC(=O)CCNC(=O)C1(c2cccnc2)CCC1)[C@@H](C)O)[C@@H](C)O)[C@@H](C)CC)[C@@H](C)CC)C(C)C)C(=O)N[C@@H](C)C(=O)NCC(=O)NCC(=O)N1CCC[C@H]1C(=O)N[C@@H](CO)C(=O)N[C@@H](CO)C(=O)NCC(=O)N[C@@H](C)C(=O)N1CCC[C@H]1C(=O)N1CCC[C@H]1C(=O)N1CCC[C@H]1C(=O)N[C@@H](CO)C(N)=O` [Compound 255] ({X24-βAla}-EGTFTSDYSI[Aib]LDKIAQK([AEEA-AEEA-γGlu-C20 diacid])AFVQWLIAGGPSSGAPPPS-NH2; C-terminus assumed): the figures for the Emax at GLP-1 receptor (setting [1]) and on GIP receptor (setting [2]) were 90% and 99%, respectively.

With `CC[C@H](C)[C@H](NC(=O)[C@H](CC(C)C)NC(=O)[C@H](Cc1c[nH]c2ccccc12)NC(=O)[C@H](CCC(N)=O)NC(=O)[C@@H](NC(=O)[C@H](Cc1ccccc1)NC(=O)[C@H](C)NC(=O)[C@H](CCCCNC(=O)COCCOCCNC(=O)COCCOCCNC(=O)CC[C@H](NC(=O)CCCCCCCCCCCCCCCCCCC(=O)O)C(=O)O)NC(=O)[C@H](CCC(N)=O)NC(=O)[C@H](C)NC(=O)[C@@H](NC(=O)[C@H](CCCCN)NC(=O)[C@H](CC(=O)O)NC(=O)[C@H](CC(C)C)NC(=O)C(C)(C)NC(=O)[C@@H](NC(=O)[C@H](CO)NC(=O)[C@H](Cc1ccc(O)cc1)NC(=O)[C@H](CC(=O)O)NC(=O)[C@H](CO)NC(=O)[C@@H](NC(=O)[C@H](Cc1ccccc1)NC(=O)[C@@H](NC(=O)CNC(=O)[C@H](CCC(=O)O)NC(=O)CCNC(=O)C1(c2cccnc2)CCCC1)[C@@H](C)O)[C@@H](C)O)[C@@H](C)CC)[C@@H](C)CC)C(C)C)C(=O)N[C@@H](C)C(=O)NCC(=O)NCC(=O)N1CCC[C@H]1C(=O)N[C@@H](CO)C(=O)N[C@@H](CO)C(=O)NCC(=O)N[C@@H](C)C(=O)N1CCC[C@H]1C(=O)N1CCC[C@H]1C(=O)N1CCC[C@H]1C(=O)N[C@@H](CO)C(N)=O` [Compound 256] ({X60-βAla}-EGTFTSDYSI[Aib]LDKIAQK([AEEA-AEEA-γGlu-C20 diacid])AFVQWLIAGGPSSGAPPPS-NH2; C-terminus assumed), the Emax was determined as 98% on GLP-1 receptor (setting [1]) and 104% at GIP receptor (setting [2]).

In the case of `CC[C@H](C)[C@H](NC(=O)[C@H](CC(C)C)NC(=O)[C@H](Cc1c[nH]c2ccccc12)NC(=O)[C@H](CCC(N)=O)NC(=O)[C@@H](NC(=O)[C@H](Cc1ccccc1)NC(=O)[C@H](C)NC(=O)[C@H](CCCCNC(=O)COCCOCCNC(=O)COCCOCCNC(=O)CC[C@H](NC(=O)CCCCCCCCCCCCCCCCCCC(=O)O)C(=O)O)NC(=O)[C@H](CCC(N)=O)NC(=O)[C@H](C)NC(=O)[C@@H](NC(=O)[C@H](CCCCN)NC(=O)[C@H](CC(=O)O)NC(=O)[C@H](CC(C)C)NC(=O)C(C)(C)NC(=O)[C@@H](NC(=O)[C@H](CO)NC(=O)[C@H](Cc1ccc(O)cc1)NC(=O)[C@H](CC(=O)O)NC(=O)[C@H](CO)NC(=O)[C@@H](NC(=O)[C@H](Cc1ccccc1)NC(=O)[C@@H](NC(=O)CNC(=O)[C@H](CCC(=O)O)NC(=O)CCNC(=O)C1(C(N)=O)CCC1)[C@@H](C)O)[C@@H](C)O)[C@@H](C)CC)[C@@H](C)CC)C(C)C)C(=O)N[C@@H](C)C(=O)NCC(=O)NCC(=O)N1CCC[C@H]1C(=O)N[C@@H](CO)C(=O)N[C@@H](CO)C(=O)NCC(=O)N[C@@H](C)C(=O)N1CCC[C@H]1C(=O)N1CCC[C@H]1C(=O)N1CCC[C@H]1C(=O)N[C@@H](CO)C(N)=O` [Compound 257] ({X66-βAla}-EGTFTSDYSI[Aib]LDKIAQK([AEEA-AEEA-γGlu-C20 diacid])AFVQWLIAGGPSSGAPPPS-NH2; C-terminus assumed), the maximal response (Emax) at GLP-1 receptor (CHO) was 89%; at GIP receptor (CHO), 92%.

Consider `CC[C@H](C)[C@H](NC(=O)[C@H](CC(C)C)NC(=O)[C@H](Cc1c[nH]c2ccccc12)NC(=O)[C@H](CCC(N)=O)NC(=O)[C@@H](NC(=O)[C@H](Cc1ccccc1)NC(=O)[C@H](C)NC(=O)[C@H](CCCCNC(=O)COCCOCCNC(=O)COCCOCCNC(=O)CC[C@H](NC(=O)CCCCCCCCCCCCCCCCCCC(=O)O)C(=O)O)NC(=O)[C@H](CCC(N)=O)NC(=O)[C@H](C)NC(=O)[C@@H](NC(=O)[C@H](CCCCN)NC(=O)[C@H](CC(=O)O)NC(=O)[C@H](CC(C)C)NC(=O)C(C)(C)NC(=O)[C@@H](NC(=O)[C@H](CO)NC(=O)[C@H](Cc1ccc(O)cc1)NC(=O)[C@H](CC(=O)O)NC(=O)[C@H](CO)NC(=O)[C@@H](NC(=O)[C@H](Cc1ccccc1)NC(=O)[C@@H](NC(=O)CNC(=O)[C@H](CCC(=O)O)NC(=O)CCCNC(=O)CNC(=O)Nc1cccc(C)c1)[C@@H](C)O)[C@@H](C)O)[C@@H](C)CC)[C@@H](C)CC)C(C)C)C(=O)N[C@@H](C)C(=O)NCC(=O)NCC(=O)N1CCC[C@H]1C(=O)N[C@@H](CO)C(=O)N[C@@H](CO)C(=O)NCC(=O)N[C@@H](C)C(=O)N1CCC[C@H]1C(=O)N1CCC[C@H]1C(=O)N1CCC[C@H]1C(=O)N[C@@H](CO)C(N)=O` [Compound 258] ({X67-CO}-G[GABA]EGTFTSDYSI[Aib]LDKIAQK([AEEA-AEEA-γGlu-C20 diacid])AFVQWLIAGGPSSGAPPPS-NH2; C-terminus assumed), for which the Emax was 100% on GLP-1 receptor (CHO) and 101% on GIP receptor (CHO).
